# Experimental data: US20060069110A1, “Substituted heterocyclic compounds and methods of use” (priority 2004, published 2006)
# pIC50: −log10 of the molar value.
# Tested on: THP1 cells (LPS induced TNF release)
# Experiment: Lipopolysaccharide-Activated THP1 Cell TNF Production Assay
# Type: cell-based
# Details: Homo sapiens, THP-1; THP1 cells, bacterial LPS, secreted TNF-α after 3 h at 37° C.; read-out: IC50 values in the THP1 cell assay (LPS induced TNF release)
# How it was run: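 THP1 cells at 1E6/mL were treated with 3-fold serial compound dilutions and LPS (1 μg/mL stock) for 3 h at 37 °C. Secreted TNF-α was quantified by electrochemiluminescent sandwich immunoassay. Percent of DMSO control versus concentration was fitted to a 4-parameter equation.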
row,pIC50,SMILES
1,≥ 4.70,C[C@@H](Cc1cccc(CN)c1)Nc1nccc(N(C)c2c[nH]c(=O)c(-c3ccccc3F)c2)n1 [Example 169]
2,≥ 4.70,"CN(c1ccnc(NCCc2cccnc2)n1)c1ccnc(-c2ccccc2F)n1 [Example 71, N^4-(2-(2-Fluorophenyl)pyrimidin-4-yl)-N^4-methyl-N^2-(2-(pyridin-3-yl)ethyl)-pyrimidine-2,4-diamine]"

# The next lines start with the compound.
row,SMILES,pIC50
1,"CN(c1ccnc(N[C@H]2CC[C@H](N)CC2)n1)c1nc(-c2ccccc2)ncc1F [Example 67, N^2-(4-Aminocyclohexyl)-N^4-(5-fluoro-2-phenylpyrimidin-4-yl)-N^4-methyl-pyrimidine-2,4-diamine]",≥ 4.70
2,"CN(c1ccnc(NCCc2cccnc2)n1)c1ccnc(-c2cccc(F)c2)n1 [Example 72, N^4-(2-(3-Fluorophenyl)pyrimidin-4-yl)-N^4-methyl-N^2-(2-(pyridin-3-yl)ethyl)-pyrimidine-2,4-diamine]",≥ 4.70
3,"C[C@H](N)c1cccc(CCNc2nccc(N(C)c3ccnc(-c4ccccc4)n3)n2)c1 [Example 21, (S)-N^2-(3-(1-Aminoethyl)phenethyl)-N^4-methyl-N^4-(2-phenylpyrimidin-4-yl)-pyrimidine-2,4-diamine]",≥ 4.70
4,"CN(c1ccnc(NCCc2cccc(-c3ccccn3)c2)n1)c1ccnc(-c2ccccc2)n1 [Example 118, N^2-(3-(Pyridin-2-yl)phenethyl)-N^4-methyl-N^4-(2-phenylpyrimidin-4-yl)pyrimidine-2,4-diamine]",≥ 4.70
5,"CN(c1ccnc(NCCc2ccccn2)n1)c1ccnc(-c2ccccc2)n1 [Example 107, N^4-Methyl-N^4-(2-phenylpyrimidin-4-yl)-N^2-(2-(pyridin-2-yl)ethyl)pyrimidine-2,4-diamine]",≥ 4.70
